# Assay results as given in US9650379B2 (CHONG KUN DANG PHARMACEUTICAL CORP., priority 2013, dated 2017).
# Key:
# HDAC6 human recombinant = target: T1, HDAC6 human recombinant (Homo sapiens, UniProt Q9UBN7); assay: Inhibition of HDAC6 activity (fluorimetric assay); type: biochemical; conditions: test concentrations 0.1, 1, 10, 100 and 1000 nM; 37° C., 60 minutes
# T1 construct: purchased Calbiochem 382180
# T1 sequence (Q9UBN7 1-1215): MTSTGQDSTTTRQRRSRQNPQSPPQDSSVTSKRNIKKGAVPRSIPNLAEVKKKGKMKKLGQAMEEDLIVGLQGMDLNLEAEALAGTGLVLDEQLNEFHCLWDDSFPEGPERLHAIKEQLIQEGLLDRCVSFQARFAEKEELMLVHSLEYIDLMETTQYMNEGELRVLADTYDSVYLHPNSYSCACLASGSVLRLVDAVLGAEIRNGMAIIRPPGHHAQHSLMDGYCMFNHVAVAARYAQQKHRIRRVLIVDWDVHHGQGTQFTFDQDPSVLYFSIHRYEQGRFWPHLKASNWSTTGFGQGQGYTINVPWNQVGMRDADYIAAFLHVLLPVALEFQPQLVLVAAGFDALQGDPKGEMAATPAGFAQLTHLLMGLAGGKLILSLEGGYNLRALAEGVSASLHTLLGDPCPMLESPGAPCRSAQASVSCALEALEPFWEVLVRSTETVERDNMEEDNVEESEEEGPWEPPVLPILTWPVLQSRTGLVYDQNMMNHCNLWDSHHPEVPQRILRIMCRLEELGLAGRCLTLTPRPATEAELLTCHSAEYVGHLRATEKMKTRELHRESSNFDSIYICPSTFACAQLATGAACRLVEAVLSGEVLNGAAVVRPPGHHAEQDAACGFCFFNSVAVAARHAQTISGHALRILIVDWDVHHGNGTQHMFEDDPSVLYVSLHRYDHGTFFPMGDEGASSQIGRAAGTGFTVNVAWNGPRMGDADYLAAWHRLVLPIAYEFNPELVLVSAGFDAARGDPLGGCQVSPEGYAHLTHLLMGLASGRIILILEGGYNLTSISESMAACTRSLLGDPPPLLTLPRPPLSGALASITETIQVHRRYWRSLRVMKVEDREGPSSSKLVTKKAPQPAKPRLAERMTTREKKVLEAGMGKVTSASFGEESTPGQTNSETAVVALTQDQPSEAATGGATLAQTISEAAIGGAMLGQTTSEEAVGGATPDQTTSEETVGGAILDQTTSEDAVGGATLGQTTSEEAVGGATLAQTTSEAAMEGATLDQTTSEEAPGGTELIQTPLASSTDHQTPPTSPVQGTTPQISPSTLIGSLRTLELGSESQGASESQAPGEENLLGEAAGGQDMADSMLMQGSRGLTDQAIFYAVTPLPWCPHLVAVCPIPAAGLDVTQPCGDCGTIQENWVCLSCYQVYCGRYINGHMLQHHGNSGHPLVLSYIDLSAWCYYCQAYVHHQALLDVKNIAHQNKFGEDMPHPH
# Summary of the method: (§1)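 HDAC1 tested with the kit assay mixture at 100, 1000 and 10000 nM compound; recombinant human HDAC6 at 0.1, 1, 10, 100 and 1000 nM. Reaction ran 60 min at 37° C, then developer was added for 30 min at 37° C and fluorescence quantified.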
# HDAC1 = target: T2, HDAC1 (Homo sapiens, UniProt Q13547); assay: Inhibition of HDAC1 activity (HDAC1 fluorimetric drug discovery assay kit); type: biochemical; conditions: test concentrations 100, 1000 and 10000 nM; 37° C., 60 minutes
# T2 construct: purchased Enzolifesciences BML-AK511
# Summary of the method: as §1
# T2 sequence (Q13547 whole entry): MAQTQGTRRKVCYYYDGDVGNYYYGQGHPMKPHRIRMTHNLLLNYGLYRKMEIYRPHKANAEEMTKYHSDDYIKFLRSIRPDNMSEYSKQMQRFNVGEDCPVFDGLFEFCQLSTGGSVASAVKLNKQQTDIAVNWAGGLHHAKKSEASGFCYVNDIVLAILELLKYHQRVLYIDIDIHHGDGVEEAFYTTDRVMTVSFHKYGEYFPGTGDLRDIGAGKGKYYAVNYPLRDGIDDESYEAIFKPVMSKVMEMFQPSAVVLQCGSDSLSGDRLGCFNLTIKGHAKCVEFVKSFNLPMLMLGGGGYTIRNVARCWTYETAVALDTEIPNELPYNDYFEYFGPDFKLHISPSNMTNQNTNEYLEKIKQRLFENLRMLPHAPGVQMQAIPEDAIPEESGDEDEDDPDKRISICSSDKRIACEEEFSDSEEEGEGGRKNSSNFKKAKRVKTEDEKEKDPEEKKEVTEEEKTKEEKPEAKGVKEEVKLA
structure (smiles),measurement,setting,value
"O=C(NO)c1ccc(Cn2ccc3cc(C4CCN(Cc5ccc(-n6cnnc6)cc5)CC4)cnc32)cc1 [Compound 874, 4-((5-(1-(4-(4H-1,2,4-triazol-4-yl)benzyl)piperidin-4-yl)-1H-pyrrolo[2,3-b]pyridin-1-yl)methyl)-N-hydroxybenzamide]",IC50,HDAC6 human recombinant,18.5 nM
same,IC50,HDAC1,690 nM
"O=C(NO)c1ccc(Cn2ccc3cc(C4CCN(C(=O)c5cccc(CN6CCOCC6)c5)CC4)cnc32)cc1 [Compound 895, N-hydroxy-4-((5-(1-(3-(morpholinomethyl)benzoyl)piperidin-4-yl)-1H-pyrrolo[2,3-b]pyridin-1-yl)methyl)benzamide]",IC50,HDAC6 human recombinant,7.6 nM
same,IC50,HDAC1,1060 nM
"O=C(NO)c1ccc(Cn2ccc3cc(-c4cnc(O)nc4)cnc32)cc1 [Compound 687, N-hydroxy-4-((5-(2-hydroxypyrimidin-5-yl)-1H-pyrrolo[2,3-b]pyridin-1-yl)methyl)benzamide]",IC50,HDAC6 human recombinant,61 nM
same,IC50,HDAC1,3230 nM
"O=C(NO)c1ccc(Cn2ccc3c(N4CCN(c5ccc(C(F)(F)F)cn5)CC4)ccnc32)cc1 [Compound 700, N-hydroxy-4-((4-(4-(5-(trifluoromethyl)pyridin-2-yl)piperazin-1-yl)-1H-pyrrolo[2,3-b]pyridin-1-yl)methyl)benzamide]",IC50,HDAC6 human recombinant,41 nM
same,IC50,HDAC1,4240 nM
"O=C(NO)c1ccc(Cn2ccc3cc(C4=CCNCC4)cnc32)cc1 [Compound 693, N-hydroxy-4-((5-(1,2,3,6-tetrahydropyridin-4-yl)-1H-pyrrolo[2,3-b]pyridin-1-yl)methyl)benzamide]",IC50,HDAC6 human recombinant,3 nM
same,IC50,HDAC1,520 nM
"O=C(NO)c1ccc(Cn2ccc3cc(-c4ccc(F)cc4F)cnc32)cc1 [Compound 125, 4-((5-(2,4-difluorophenyl)-1H-pyrrolo[2,3-b]pyridin-1-yl)methyl)-N-hydroxybenzamide]",IC50,HDAC6 human recombinant,52 nM
same,IC50,HDAC1,1610 nM
"CC(C)(C)OC(=O)N1CC=C(c2nccc3c2ccn3Cc2ccc(C(=O)NO)cc2)CC1 [Compound 757, tert-butyl 4-(1-(4-(hydroxycarbamoyl)benzyl)-1H-pyrrolo[3,2-c]pyridin-4-yl)-5,6-dihydropyridine-1(2H)-carboxylate]",IC50,HDAC6 human recombinant,17 nM
same,IC50,HDAC1,1120 nM
"CC(C)(C)OC(=O)N1CC=C(c2ccc3c(ccn3Cc3ccc(C(=O)NO)cc3)n2)CC1 [Compound 758, tert-butyl 4-(1-(4-(hydroxycarbamoyl)benzyl)-1H-pyrrolo[3,2-b]pyridin-5-yl)-5,6-dihydropyridine-1(2H)-carboxylate]",IC50,HDAC6 human recombinant,8 nM
same,IC50,HDAC1,1630 nM
"CC(C)(C)CCN1CCC(c2cnc3c(ccn3Cc3ccc(C(=O)NO)cc3)c2)CC1 [Compound 864, 4-((5-(1-(3,3-dimethylbutyl)piperidin-4-yl)-1H-pyrrolo[2,3-b]pyridin-1-yl)methyl)-N-hydroxybenzamide]",IC50,HDAC6 human recombinant,18 nM
same,IC50,HDAC1,1740 nM
"O=C(NO)c1ccc(Cn2ccc3cc(C4CCN(Cc5ccncc5)CC4)cnc32)cc1 [Compound 841, N-hydroxy-4-((5-(1-(pyridin-4-ylmethyl)piperidin-4-yl)-1H-pyrrolo[2,3-b]pyridin-1-yl)methyl)benzamide]",IC50,HDAC6 human recombinant,6.9 nM
same,IC50,HDAC1,540 nM
"O=C(NO)c1ccc(Cn2ccc3ccc(C4=CCOCC4)nc32)cc1 [Compound 743, 4-((6-(3,6-dihydro-2H-pyran-4-yl)-1H-pyrrolo[2,3-b]pyridin-1-yl)methyl)-N-hydroxybenzamide]",IC50,HDAC6 human recombinant,25 nM
same,IC50,HDAC1,190 nM
"O=C(NO)c1ccc(Cn2ccc3cc(-c4ccc5cccnc5c4)cnc32)cc1 [Compound 688, N-hydroxy-4-((5-(quinolin-7-yl)-1H-pyrrolo[2,3-b]pyridin-1-yl)methyl)benzamide]",IC50,HDAC6 human recombinant,22 nM
same,IC50,HDAC1,4610 nM
"O=C(NO)c1ccc(Cn2ccc3cc(C4CCN(C(=O)c5ccc(CN6CCOCC6)cc5)CC4)cnc32)cc1 [Compound 897, N-hydroxy-4-((5-(1-(4-(morpholinomethyl)benzoyl)piperidin-4-yl)-1H-pyrrolo[2,3-b]pyridin-1-yl)methyl)benzamide]",IC50,HDAC6 human recombinant,7.4 nM
same,IC50,HDAC1,1090 nM
"O=C(NO)c1ccc(Cn2ccc3cc(N4CCC5(CCN(Cc6cccnc6)C5)CC4)cnc32)cc1 [Compound 1101, N-hydroxy-4-((5-(2-(pyridin-3-ylmethyl)-2,8-diazaspiro[4.5]decan-8-yl)-1H-pyrrolo[2,3-b]pyridin-1-yl)methyl)benzamide]",IC50,HDAC6 human recombinant,1 nM
same,IC50,HDAC1,500 nM
"CC(C)N1CCN(c2ccnc3c2ccn3Cc2ccc(C(=O)NO)cc2)CC1 [Compound 225, N-hydroxy-4-((4-(4-isopropylpiperazin-1-yl)-1H-pyrrolo[2,3-b]pyridin-1-yl)methyl)benzamide]",IC50,HDAC6 human recombinant,3 nM
same,IC50,HDAC1,410 nM
"COc1ccc(CN2CC3(CCN(c4ccnc5c4ccn5Cc4ccc(C(=O)NO)cc4)CC3)C2)cc1 [Compound 1023, N-hydroxy-4-((4-(2-(4-methoxybenzyl)-2,7-diazaspiro[3.5]nonan-7-yl)-1H-pyrrolo[2,3-b]pyridin-1-yl)methyl)benzamide]",IC50,HDAC6 human recombinant,3.3 nM
same,IC50,HDAC1,560 nM
"CC(C)(O)CN1C2CCC1CN(c1ccnc3c1ccn3Cc1ccc(C(=O)NO)cc1)C2 [Compound 1017, N-hydroxy-4-((4-(8-(2-hydroxy-2-methylpropyl)-3,8-diazabicyclo[3.2.1]octan-3-yl)-1H-pyrrolo[2,3-b]pyridin-1-yl)methyl)benzamide]",IC50,HDAC6 human recombinant,6 nM
same,IC50,HDAC1,220 nM
"CC(O)(CO)CN1CCC(c2cnc3c(ccn3Cc3ccc(C(=O)NO)cc3)c2)CC1 (stereo not shown) [Compound 946, 4-((5-(1-(2,3-dihydroxy-2-methylpropyl)piperidin-4-yl)-1H-pyrrolo[2,3-b]pyridin-1-yl)methyl)-N-hydroxybenzamide]",IC50,HDAC6 human recombinant,2 nM
same,IC50,HDAC1,490 nM
"CC(C)(O)CN1CCC(c2ccc3ccn(Cc4ccc(C(=O)NO)cc4)c3n2)CC1 [Compound 991, N-hydroxy-4-((6-(1-(2-hydroxy-2-methylpropyl)piperidin-4-yl)-1H-pyrrolo[2,3-b]pyridin-1-yl)methyl)benzamide]",IC50,HDAC6 human recombinant,32 nM
same,IC50,HDAC1,880 nM
"C[C@@H]1CN(c2ccnc3c2ccn3Cc2ccc(C(=O)NO)cc2)C[C@H](C)N1Cc1ccccc1 [Compound 990, 4-((4-((3S,5R)-4-benzyl-3,5-dimethylpiperazin-1-yl)-1H-pyrrolo[2,3-b]pyridin-1-yl)methyl)-N-hydroxybenzamide]",IC50,HDAC6 human recombinant,4.6 nM
same,IC50,HDAC1,1360 nM
"COc1ccc(-c2cnc3c(ccn3Cc3ccc(C(=O)NO)cc3)c2)cc1 [Compound 689, N-hydroxy-4-((5-(4-methoxyphenyl)-1H-pyrrolo[2,3-b]pyridin-1-yl)methyl)benzamide]",IC50,HDAC6 human recombinant,83 nM
same,IC50,HDAC1,3170 nM
"O=C(NO)c1ccc(Cn2ccc3c(-c4ccc(CN5CCOCC5)cc4)ccnc32)cc1 [Compound 762, N-hydroxy-4-((4-(4-(morpholinomethyl)phenyl)-1H-pyrrolo[2,3-b]pyridin-1-yl)methyl)benzamide]",IC50,HDAC6 human recombinant,10 nM
same,IC50,HDAC1,780 nM
"COc1ccc(CN2CCC(c3cnc4c(ccn4Cc4ccc(C(=O)NO)cc4)c3)CC2)cc1 [Compound 830, N-hydroxy-4-((5-(1-(4-methoxybenzyl)piperidin-4-yl)-1H-pyrrolo[2,3-b]pyridin-1-yl)methyl)benzamide]",IC50,HDAC6 human recombinant,13 nM
same,IC50,HDAC1,1920 nM
"O=C(NO)c1ccc(Cn2ccc3cc(C4CCN(Cc5ccc(-n6ccnc6)cc5)CC4)cnc32)cc1 [Compound 873, 4-((5-(1-(4-(1H-imidazol-1-yl)benzyl)piperidin-4-yl)-1H-pyrrolo[2,3-b]pyridin-1-yl)methyl)-N-hydroxybenzamide]",IC50,HDAC6 human recombinant,16.5 nM
same,IC50,HDAC1,760 nM
"CC1CCN(c2cnc3c(ccn3Cc3ccc(C(=O)NO)cc3)c2)CC1 [Compound 805, N-hydroxy-4-((5-(4-methylpiperidin-1-yl)-1H-pyrrolo[2,3-b]pyridin-1-yl)methyl)benzamide]",IC50,HDAC6 human recombinant,38 nM
same,IC50,HDAC1,1610 nM
"O=C(NO)c1ccc(Cn2ccc3c(C4CCN(Cc5ncccn5)CC4)ccnc32)cc1 [Compound 966, N-hydroxy-4-((4-(1-(pyrimidin-2-ylmethyl)piperidin-4-yl)-1H-pyrrolo[2,3-b]pyridin-1-yl)methyl)benzamide]",IC50,HDAC6 human recombinant,3.8 nM
same,IC50,HDAC1,280 nM
